The source of these data is US20250179210A1, “ANTI-CEACAM5 ANTIBODIES AND CONJUGATES AND USES THEREOF” (Merck Patent GmbH, priority 2022, published 2025).

The test system of data set [1] is CEACAM5 from Macaca fascicularis. As to conditions: background; cited from earlier work.
Another data set relates to MKN45 cells. The data set is described as follows: Internalization assay using Cell Discoverer (pHrodo labeled antibodies). The format is cell-based, human. An excerpt: A relevant characteristic of an ADC is its internalization into a target-expressing cell and lysosomes, and thus internalization is a relevant property of antibodies to be used as part of ADCs. Antibody internalization rate into the late endosome and lysosome (low pH vesicles) can be monitored by directly labeling the antibodies with a pH-sensitive dye (pHrodo) which emits strong fluorescence at a pH lower than 6.0 upon excitation. This fluorescence can be imaged in the Cell-Discoverer7 (Zeiss) and internalization rate can be calculated.
To analyze the internalization rates of several antibodies, MKN45 cells were seeded in a 96 well, dark, flat clear bottom plate (Cellvis) at 25,000 cells/well. Cells were cultivated over night with 100 μl/well of RMPI-1640+10% FBS (Thermo). Cell media was removed, and cells were stained with 100 μl of 10 μg/ml Hoechst dye diluted in PBS×1 for 15 min at room temperature (RT) in the dark. Cells were then washed twice with PBS×1. […]
Internalization of pHrodo labeled antibodies into the late endosomes and lysosomes of cells was imaged by Cell-Discoverer7 (Zeiss) using fluorescence at excitation of 567 nm and emission detector of 592/25 nm. […]
Fluorescence of each well was recorded every 20 min for 20 h. Analysis of Sum Fluorescence Intensity per cell (SFI) was calculated by the Zen Software (ZEN3.1) and Excel analysis of linear regression.

The conditions of data set [2]: background; cited from earlier work.
A further data set has as its system MDA-MB-468. The data set is described as follows: Viability assay (Cell Titer-Glo). It counts as cell-based. As to conditions: Homo sapiens, Table 2. Background: Cellular ATP, detected with luciferase, serves as a proxy for viable cell number.
Another data set relates to MKN-45. Kind of data set: Viability assay (Cell Titer-Glo). The following applies: Homo sapiens. The format is cell-based.
For another data set, the system named is LS174T. The data set is described as follows: Viability assay (Cell Titer-Glo). The format is cell-based. As to conditions: Homo sapiens.
Another data set relates to SK-CO-1. The data set is described as follows: Viability assay (Cell Titer-Glo). It counts as cell-based. As to conditions: Homo sapiens.
The subject of another data set is SNU-16. Kind of data set: Viability assay (Cell Titer-Glo). The format is cell-based, human.
The test system of another data set is MDA-MB-231. The data set is described as follows: Viability assay (Cell Titer-Glo). The format is cell-based. The following applies: Homo sapiens, MDA-MB-231, 144 h; Table 2; six days; geometric mean; N ≥ 3; CEACAM5 Negative.

Usually IC50 stands for the concentration needed to halve the response being measured. A higher IC50 goes with lower potency.

Several values for one entry are separate records, joined by “and”; a condition that tells them apart may be missing. Identical values can stand only once.

CEACAM5 from Macaca fascicularis, sequence (as listed by the source): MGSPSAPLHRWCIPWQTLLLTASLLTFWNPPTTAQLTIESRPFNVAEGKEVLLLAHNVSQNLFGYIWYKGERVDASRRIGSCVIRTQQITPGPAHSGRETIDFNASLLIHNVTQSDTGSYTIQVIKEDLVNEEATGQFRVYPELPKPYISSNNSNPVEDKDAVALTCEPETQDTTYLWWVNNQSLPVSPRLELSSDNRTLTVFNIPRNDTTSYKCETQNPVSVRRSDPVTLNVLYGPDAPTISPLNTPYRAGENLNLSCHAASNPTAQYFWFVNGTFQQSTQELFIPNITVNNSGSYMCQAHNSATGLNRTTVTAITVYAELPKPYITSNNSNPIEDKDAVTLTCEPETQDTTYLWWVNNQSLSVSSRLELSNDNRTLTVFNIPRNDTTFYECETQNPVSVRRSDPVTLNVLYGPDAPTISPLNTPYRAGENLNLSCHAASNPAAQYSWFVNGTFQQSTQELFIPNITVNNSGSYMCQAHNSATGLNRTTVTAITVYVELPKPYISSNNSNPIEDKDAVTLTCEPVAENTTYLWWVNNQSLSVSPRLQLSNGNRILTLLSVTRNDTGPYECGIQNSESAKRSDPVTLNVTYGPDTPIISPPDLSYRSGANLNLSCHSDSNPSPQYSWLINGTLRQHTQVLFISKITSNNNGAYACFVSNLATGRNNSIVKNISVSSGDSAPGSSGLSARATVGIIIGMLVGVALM
Method for LS174T: (§1) Cytotoxicity effects of the ADC on the cancer cell lines were measured by cell viability assays. Cells were seeded in a volume of 90 μL in 96-well plates the day before treatment. Test compounds (ADCs or free payloads) were formulated at 10-fold the starting concentration in cell culture medium. Test compounds were serial diluted (1:4) and 10 μL of each dilution was added to the cells in triplicates. Plates were cultured at 37° C. in a CO2 incubator for six days. For cell viability measurement, Cell Titer-Glo® reagent (Promega™ Corp, Madison, WI) was added to each well, and plates processed according to the manufacturer's instructions. Luminescence signals were measured using a Varioskan plate reader (Thermo Fisher). Luminescence readings were converted to % viability relative to untreated cells. Data was fitted with non-linear regression analysis, using log (inhibitor) vs. response, variable slope, 4-parameter fit equation using GraphPad Prism. […] Geometric mean values of IC50s derived from multiple experiments were calculated.
(§2) Cytotoxicity effects of the ADC on the cancer cell lines were measured by cell viability assays. […] Luminescence signals were measured using a Varioskan plate reader (Thermo Fisher). Luminescence readings were converted to % viability relative to untreated cells. […] Geometric mean values of IC50s derived from multiple experiments were calculated.
Method for MDA-MB-231: as §1, §2
Method for MDA-MB-468: Cytotoxicity effects of the ADC on the cancer cell lines were measured by cell viability assays. Cells were seeded in a volume of 90 μL in 96-well plates the day before treatment. Test compounds (ADCs or free payloads) were formulated at 10-fold the starting concentration in cell culture medium. Test compounds were serial diluted (1:4) and 10 μL of each dilution was added to the cells in triplicates. Plates were cultured at 37° C. in a CO2 incubator for six days. For cell viability measurement, Cell Titer-Glo® reagent (Promega™ Corp, Madison, WI) was added to each well, and plates processed according to the manufacturer's instructions. Luminescence signals were measured using a Varioskan plate reader (Thermo Fisher). Luminescence readings were converted to % viability relative to untreated cells. Data was fitted with non-linear regression analysis, using log (inhibitor) vs. response, variable slope, 4-parameter fit equation using GraphPad Prism. Data is shown as % relative cell viability vs. molar compound concentration, error bars indicating standard deviation (SD) of triplicates. Geometric mean values of IC50s derived from multiple experiments were calculated.
Method for MKN-45: as §1, §2
Method for SK-CO-1: as §1, §2
Method for SNU-16: as §1, §2

In the case of “hmn-14: known anti-CEACAM5 antibody as in labetuzumab govitecan; HC SEQ ID NO: 27, LC SEQ ID NO: 28 [reference compound]”, the “cross-reactivity with CEACAM5 from Macaca fascicularis” value in data set [1] is “not cross-reacting with CEACAM5 from Macaca fascicularis”. Moreover, the average binding rate in the data set on MKN45 cells (average of the three slopes of the linear part of the curve) came out at 22268±3060. For the same molecule, the “Slope of Curve” value with MKN45 cells (linear part (700 to 1200 minutes) of fluorescence intensity per cell, 100 nM pHrodo labeled antibody, single wells) is 23701 and 24350 and 18754.

For Labetuzumab govitecan, the “stability of the linker structure after parenteral application” value in [2] was “significant instability of the linker structure”.

For `CC[C@@]1(O)C(=O)OCc2c1cc1n(c2=O)Cc2c-1nc1cc(F)c(C)c3c1c2[C@@H](N)CC3` [PAYLOAD, (1S,9S)-1-Amino-9-ethyl-5-fluoro-1,2,3,9,12,15-hexahydro-9-hydroxy-4-methyl-10H,13H-benzo(de)pyrano(3′,4′:6,7)indolizino(1,2-b)quinoline-10,13-dione, reference compound], the IC50 in the data set with MDA-MB-468 (MDA-MB-468, 144 h, six days, geometric mean, N ≥ 2, CEACAM5 Negative) amounted to 0.21 nM; with MKN-45 (MKN-45, 144 h, Table 2, six days, geometric mean, N ≥ 3, CEACAM5 Positive), 0.89 nM; with LS174T (144 h, Table 2, six days, geometric mean, N ≥ 3, CEACAM5 Positive) it was 0.53 nM; in the data set on SK-CO-1 (SK-CO-1, 144 h, Table 2, six days, geometric mean, N ≥ 4, CEACAM5 Positive) it was 0.25 nM; with SNU-16 (Homo sapiens, SNU-16, 144 h, Table 2, six days, geometric mean, N ≥ 3, CEACAM5 Positive) it was 0.44 nM; with MDA-MB-231, 0.93 nM. The Emax in the data set with MDA-MB-468 (MDA-MB-468, at the highest tested compound concentration, read-out: MDA-MB-468 maximal effect compared to untreated controls) is -99%; in the data set with MKN-45 (MKN-45, Table 2, at the highest tested compound concentration, read-out: MKN-45 maximal effect compared to untreated controls), -96%; with LS174T (Table 2, at the highest tested compound concentration, read-out: LS174T maximal effect compared to untreated controls), -88%; with SK-CO-1 (SK-CO-1, Table 2, at the highest tested compound concentration, read-out: SK-CO-1 maximal effect compared to untreated controls) it was -99%. In the data set with SNU-16 (Table 3, at the highest tested compound concentration), the “SNU-16 maximal effect compared to untreated controls” value was “(−99%)”.
